The record followed here is patent publication US7342089B2, “Cyclic peptides for treatment for cachexia” (Palatin Technologies, Inc., priority 2002, dated 2008).

Broadly, the Ki is a dissociation constant, usually derived from enzyme kinetics or from competition with a known ligand. As a reminder, the EC50 is the concentration at which the effect is half-maximal.

Molecules are shown by their SMILES. Positions of bridges follow the written chain, without caps; N, C: chain ends. Non-standard residues stand in square brackets, D forms with d. Residues, ends and D or L forms follow the SMILES beside them. 2Nal = N[C@@H](Cc1ccc2ccccc2c1)C(=O)O; d2Nal = N[C@H](Cc1ccc2ccccc2c1)C(=O)O; Nle = CCCC[C@H](N)C(=O)O Some results are limits rather than exact numbers.

The target of one experiment is T1, hMC4-R (HEK-293 cells) (Homo sapiens, UniProt P32245).
T1 construct: expressed in transfected cells; host or cells: HEK-293
As to the kind of experiment: cAMP assay for agonist/antagonist status and functional antagonism, MC4-R. Type of experiment: cell-based. Particulars: for agonist/antagonist status as to MC4-R: cAMP assay; for Kb: functional antagonism, Schild's analysis vs NDP-α-MSH, read-out: pA2 value as to MC4-R (converted).

Another experiment concerns the target T2, hMC4-R (Homo sapiens, UniProt P32245).
T2 construct: expressed in transfected cells; host or cells: HEK-293
The experiment can be described thus: Competitive inhibition binding assay using [I125]-NDP-α-MSH, hMC4-R. Particulars: HEK-293 membranes, read-out: Ki MC4-R.

The target of another experiment is T3, hMC3-R (Homo sapiens, UniProt P41968).
T3 construct: expressed in transfected cells; host or cells: HEK-293
The experiment can be described thus: Competitive inhibition binding assay using [I125]-NDP-α-MSH, hMC3-R. Particulars: HEK-293 membranes, read-out: Ki MC3-R.

The target in experiment [1] is T4, MC1-R (B-16 mouse melanoma cells) (Mus musculus, UniProt Q01727). As to the kind of experiment: Competitive inhibition binding assay using [I125]-NDP-α-MSH, MC1-R. To be noted: B-16 mouse melanoma cell membranes. The method, then: Each assay is conducted in triplicate.
A further experiment deals with rats. The experiment can be described thus: ICV feeding studies. To be noted: lowest value of multiple tests, parentheses = decrease. The experiment is classed as in vivo, rat. The method, then: (§1) Change in food intake and body weight is evaluated for selected peptides. Rats with indwelling intracerebroventricular cannulas (ICV rats) are obtained from Hilltop Lab Animals, Inc. (Scottdale, Pa.). Animals are individually housed in conventional plexiglass hanging cages and maintained on a controlled 12 hour on/off light cycle. Water and powdered (LabDiet, 5P00 Prolab RMH 3000) or pelleted (Harlan Teklad 2018 18% Protein Rodent Diet) food is provided ad libitum. For 1 week before treatment, 24-hour food intake and body weight change is recorded to assess a baseline for the group during vehicle treatment. The rats are dosed ICV with vehicle or selected cyclic peptides (0.3-3 nmol). The changes in body weight and food intake for the 24 hour period after dosing are determined. The changes in body weight and food intake for the 48 hour and 72 hour periods after dosing are also measured to determine reversal of changes in body weight and food intake effects back to baseline levels.
A series of ICV feeding studies were conducted on rats. All animals were dosed on the first day with saline ICV, and given a pre-weighed food bowl with food weight recorded at 2 and 21 hours post-ICV injection. On day 2, animals were randomized based on the 21 hour food consumption, with animals eliminated due to low food consumption or food spills. […] Food weights were again recorded at 2, 4, 21 and 24 hours post-icv injection. In most instances, multiple different tests were conducted which each group containing between 8 and 12 members; the lowest value is shown below. Values are shown as percent increase (decrease) in aggregate food intake. “ND” means no test was conducted at that dose level.

For a further experiment, the target named is T5, hMC5-R (Homo sapiens, UniProt P33032).
T5 construct: expressed in transfected cells; host or cells: HEK-293
The experiment can be described thus: Competitive inhibition binding assay using [I125]-NDP-α-MSH, hMC5-R. Particulars: HEK-293 membranes, read-out: Ki MC5-R.

In experiment [2] the target is T4, MC1-R (B-16 mouse melanoma cells). As to the kind of experiment: cAMP assay for agonist/antagonist status, MC1-R. Type of experiment: cell-based. Particulars: for EC50: read-out: EC50 as to MC1-R. The method, then:
Cells are incubated with the test peptides in the presence or absence of α-MSH for 1 hour at 37° C. cAMP levels in the cell lysates are measured using the EIA kit (Amersham). Data analysis and EC50 values are determined using nonlinear regression analysis with Prism Graph-Pad software.
The agonist/antagonist status with respect to MC1-R, MC4-R and MC5-R of certain peptides of the invention is determined. Antagonistic activity is determined by measuring the inhibition of α-MSH-induced or NDP-α-MSH-induced cAMP levels following exposure to the peptides as in the preceding descriptions.
Background: cAMP levels reflect the balance of adenylyl cyclase and phosphodiesterase activity.

In another experiment the target is T6, hMC3-R (HEK-293 cells) (Homo sapiens, UniProt P41968).
T6 construct: expressed in transfected cells; host or cells: HEK-293
The experiment can be described thus: cAMP assay for agonist/antagonist status and functional antagonism, MC3-R. The experiment is classed as cell-based. To be noted: for agonist/antagonist status as to MC3-R: cAMP assay.

A further experiment relates to male Sprague-Dawley rats. As to the kind of experiment: IV food intake and body weight change. To be noted: 1 mg/kg IV, 24 hour period (FIG. 1). The experiment is classed as in vivo, rat. The method, then:
as §1, with “peptides. Male Sprague-Dawley rats” for “peptides. Rats with indwelling intracerebroventricular cannulas (ICV rats)”, “from Taconic (Germantown, N.Y.).” for “from Hilltop Lab Animals, Inc. (Scottdale, Pa.).”, “dosed IV or IP” for “dosed ICV”, “selected” for “selected cyclic”, “peptides (0.5-3 mg/kg).” for “peptides (0.3-3 nmol).”, “to determined” for “to determine”
Briefly, male Sprague-Dawley rats (300-350 g) were individually housed in shoe box cages with a 12 hr light/dark period. Food intake and body weights were monitored for 24 hours prior to the start of the study. Rats were randomized by body weight and then dosed IV just before lights-off with the compound of Example 12 or the same volume of vehicle. A pre-weighed amount of food was provided and food intake was determined at 2, 4, 20 and 24 hours. […]

T5 sequence (P33032 whole entry): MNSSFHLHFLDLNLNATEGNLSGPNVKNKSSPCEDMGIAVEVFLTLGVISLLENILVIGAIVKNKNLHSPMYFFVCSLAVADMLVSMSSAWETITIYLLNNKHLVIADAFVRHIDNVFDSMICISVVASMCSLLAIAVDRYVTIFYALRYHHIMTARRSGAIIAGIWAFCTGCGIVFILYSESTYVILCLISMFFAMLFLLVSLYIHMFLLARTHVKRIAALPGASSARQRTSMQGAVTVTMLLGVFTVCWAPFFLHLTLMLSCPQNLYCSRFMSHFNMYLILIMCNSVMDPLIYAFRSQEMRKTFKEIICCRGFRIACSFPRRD
T6 sequence (P41968 whole entry): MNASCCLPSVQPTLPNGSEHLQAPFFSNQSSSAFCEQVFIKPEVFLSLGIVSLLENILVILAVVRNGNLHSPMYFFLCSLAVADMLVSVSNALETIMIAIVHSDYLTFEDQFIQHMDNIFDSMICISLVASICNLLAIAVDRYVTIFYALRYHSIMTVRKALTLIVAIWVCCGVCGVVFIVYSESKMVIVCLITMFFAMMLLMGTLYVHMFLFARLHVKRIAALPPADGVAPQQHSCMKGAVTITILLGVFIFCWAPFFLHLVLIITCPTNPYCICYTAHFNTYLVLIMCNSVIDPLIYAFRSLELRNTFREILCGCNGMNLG
T3 sequence (P41968 whole entry): as above
T1 sequence (P32245 whole entry): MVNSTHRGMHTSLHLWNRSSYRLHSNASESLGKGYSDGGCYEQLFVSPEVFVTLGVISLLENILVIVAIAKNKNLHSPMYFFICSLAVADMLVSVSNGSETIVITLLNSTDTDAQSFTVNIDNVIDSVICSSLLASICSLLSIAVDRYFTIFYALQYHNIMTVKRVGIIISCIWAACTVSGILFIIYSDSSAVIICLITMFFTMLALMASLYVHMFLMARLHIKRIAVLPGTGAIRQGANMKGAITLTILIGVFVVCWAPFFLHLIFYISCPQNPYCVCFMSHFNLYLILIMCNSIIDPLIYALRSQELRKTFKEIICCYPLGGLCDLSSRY
T2 sequence (P32245 whole entry): as above
T4 sequence (Q01727 whole entry): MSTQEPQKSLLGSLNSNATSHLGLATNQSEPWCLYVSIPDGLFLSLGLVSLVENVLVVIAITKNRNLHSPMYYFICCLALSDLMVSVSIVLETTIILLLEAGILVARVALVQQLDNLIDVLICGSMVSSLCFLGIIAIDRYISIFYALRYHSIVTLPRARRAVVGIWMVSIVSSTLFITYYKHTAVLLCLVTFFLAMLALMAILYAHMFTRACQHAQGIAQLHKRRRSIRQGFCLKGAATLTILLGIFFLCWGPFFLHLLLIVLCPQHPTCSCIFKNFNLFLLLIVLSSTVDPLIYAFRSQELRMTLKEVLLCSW
Protocol for hMC3-R (HEK-293 cells): Assay for neutral antagonist.
Experimental details are similar to the analysis for agonistic activity and are described above. Briefly, cells are pre-incubated for 30 minutes with the test peptides at concentrations between 0.5 nM and 5000 nM. […] For Schild's analysis, the interactions are studied using at least 3 concentrations of the peptides, separated by a log unit, over a full range of the agonist (0.005-5000 nM). cAMP levels is measured in the cell lysates after appropriate dilution. Nonlinear regression analysis with the Prism Graph-Pad software is used for Schild's analysis and to obtain EC50 values. pA2 values are derived from the Schild's plot.
Protocol for hMC4-R (HEK-293 cells): Confluent HEK-293 cells over-expressing MC4-R are detached by enzyme free cell suspension buffer. […] The cells are plated in a 96 well plates at a density of 0.5×10^5 cells per well and pre-incubated for 30 minutes. The cells are then challenged with the test peptides dissolved in dimethylsulfoxide (DMSO) at a concentration range of 0.05-5000 nM in a total assay volume of 200 μL for 1 hour at 37° C. The concentration of DMSO is always held at 1% in the assay mixture. […] At the end of the incubation period the cells are disrupted by the addition of 50 μL lysis buffer from the cAMP EIA kit (Amersham). Complete rupture of the cells is ensured by pipetting the cells up and down multiple times. cAMP levels in the cell lysates are measured after appropriate dilution using the EIA kit (Amersham) method. Data analysis and EC50 values are determined by using nonlinear regression analysis with the Prism Graph-Pad software. […] Peptides with a response ratio of less than 0.1 are evaluated for antagonistic activity.
Briefly, cells are pre-incubated for 30 minutes with the test peptides at concentrations between 0.5 nM and 5000 nM. […] For Schild's analysis, the interactions are studied using at least 3 concentrations of the peptides, separated by a log unit, over a full range of the agonist (0.005-5000 nM). cAMP levels is measured in the cell lysates after appropriate dilution. Nonlinear regression analysis with the Prism Graph-Pad software is used for Schild's analysis and to obtain EC50 values. pA2 values are derived from the Schild's plot.

Take `CC(=O)N[C@H]1CC(=O)NCCCC[C@@H](C(=O)O)NC(=O)[C@H](Cc2ccc3ccccc3c2)NC(=O)[C@H](CCCNC(=N)N)NC(=O)[C@@H](Cc2ccc3ccccc3c2)NC(=O)[C@H](Cc2c[nH]c3ccccc23)NC1=O` [Example 16, Ac-cyclo(-Asp-Trp-D-Nal 2-Arg-Nal 2-Lys)-OH] (Ac-DW[d2Nal]R[2Nal]K-OH; lactam 1-6): the “agonist/antagonist status as to MC4-R” value on hMC4-R (HEK-293 cells) was “antagonist”. Moreover, on hMC4-R (HEK-293 cells), the Kb is 3.55 nM. For the same compound, the Ki at hMC4-R turned out to be 0.1 nM; at hMC3-R it was 10 nM; in experiment [1], 1100 nM; on hMC5-R it was 17 nM. In addition, the “Percent Increase (Decrease) In Aggregate Food Intake After ICV Administration of Peptide Compared to Vehicle (Saline)” value in the experiment on rats (0.3 nmol) is 0%; in the experiment on rats (1 nmol) it was 4%. Further, the “agonist/antagonist status as to MC1-R” value in [2] is given as “partial agonist”. Further, the EC50 in experiment [2] was over 1000 nM. For the same compound, at hMC3-R (HEK-293 cells), the “agonist/antagonist status as to MC3-R” value is “antagonist”.
With `CC(=O)N[C@H]1CC(=O)NCCCC[C@@H](C(=O)O)NC(=O)[C@H](Cc2ccc3ccccc3c2)NC(=O)[C@H](CCCNC(=N)N)NC(=O)[C@@H](Cc2ccc3ccccc3c2)NC(=O)[C@H](Cc2c[nH]cn2)NC1=O` [Example 15, Ac-cyclo(-Asp-His-D-Nal 2-Arg-Nal 2-Lys)-OH] (Ac-DH[d2Nal]R[2Nal]K-OH; lactam 1-6), on hMC4-R (HEK-293 cells), the “agonist/antagonist status as to MC4-R” value was “antagonist”. Moreover, at hMC4-R (HEK-293 cells), the Kb is 10 nM. The Ki at hMC4-R came to 2 nM; at hMC3-R it was 6 nM; in experiment [1], 143 nM; at hMC5-R, 89 nM. Further, in the experiment with rats (1 nmol), the “Percent Increase (Decrease) In Aggregate Food Intake After ICV Administration of Peptide Compared to Vehicle (Saline)” value came out at 32%. Further, the “agonist/antagonist status as to MC1-R” value in [2] is “partial agonist”. For the same compound, the EC50 in experiment [2] stood at 2150 nM. Further, the “agonist/antagonist status as to MC3-R” value at hMC3-R (HEK-293 cells) is “antagonist”.
Turning to `CNC(=O)[C@@H]1CCCCNC(=O)C[C@H](NC(C)=O)C(=O)N[C@@H](Cc2c[nH]c3ccccc23)C(=O)N[C@H](Cc2ccc3ccccc3c2)C(=O)N[C@@H](CCCNC(=N)N)C(=O)N[C@@H](Cc2ccc3ccccc3c2)C(=O)N1` [Example 19, Ac-cyclo(-Asp-Trp-D-Nal 2-Arg-Nal 2-Lys)-NH—CH3] (Ac-DW[d2Nal]R[2Nal]K-NHMe; lactam 1-6), the “agonist/antagonist status as to MC4-R” value at hMC4-R (HEK-293 cells) is “antagonist”. Further, the values for the Kb on hMC4-R (HEK-293 cells) and at hMC3-R (HEK-293 cells) (read-out: pA2 value as to MC3-R (converted)) were 1.26 nM and 8.51 nM, respectively. The Ki at hMC4-R is 0.06 nM; on hMC3-R, 3 nM; in experiment [1], 643 nM; at hMC5-R it was 6 nM. Further, the “Percent Increase (Decrease) In Aggregate Food Intake After ICV Administration of Peptide Compared to Vehicle (Saline)” value is recorded as 28% with rats (0.3 nmol) and 32% with rats (1 nmol). For the same compound, in experiment [2] (peptide at 1 μM concentration), the “agonist/antagonist status at MC1-R” value is “inactive”. For the same compound, the “agonist/antagonist status as to MC3-R” value on hMC3-R (HEK-293 cells) was “antagonist”.
With `CCCC[C@H](NC(C)=O)C(=O)N[C@H]1CC(=O)NCCCC[C@@H](C(=O)O)NC(=O)[C@H](Cc2ccc3ccccc3c2)NC(=O)[C@H](CCCNC(=N)N)NC(=O)[C@@H](Cc2ccc3ccccc3c2)NC(=O)[C@H](Cc2c[nH]cn2)NC1=O` [Example 12, Ac-Nle-cyclo(-Asp-His-D-Nal 2-Arg-Nal 2-Lys)-OH] (Ac-[Nle]DH[d2Nal]R[2Nal]K-OH; lactam 2-7), the “agonist/antagonist status as to MC4-R” value at hMC4-R (HEK-293 cells) is “antagonist”. In addition, the Kb on hMC4-R (HEK-293 cells) was 7.59 nM. Further, the Ki at hMC4-R was found to be 0.02 nM; at hMC3-R, 0.3 nM; in experiment [1] it was 0.2 nM; at hMC5-R, 0.2 nM. Also, the “Percent Increase (Decrease) In Aggregate Food Intake After ICV Administration of Peptide Compared to Vehicle (Saline)” value in the experiment with rats (0.3 nmol) is given as 36%; in the experiment on rats (1 nmol), 48%. Further, in the experiment with male Sprague-Dawley rats, the “cumulative food intake compared to vehicle” value was “increase in food intake”. Besides, the “agonist/antagonist status as to MC1-R” value in experiment [2] is “partial agonist”. Moreover, the EC50 in experiment [2] was 5 nM. The “agonist/antagonist status as to MC3-R” value at hMC3-R (HEK-293 cells) is “antagonist”.
